In patent US11414377B2, “Modulator of metabotropic and ionotropic transmembrane receptors and use thereof” (IBD THERAPEUTICS LLC, priority 2018, dated 2022):

Legend:
female balb/c mice = test: Oxazolone-induced inflammatory bowel disease model; format: in vivo; conditions: 10 mg/kg, 1, 25 and 49 hours after oxazolone, scored at 72 hours, control 2.00 ± 0.21
Procedure: The study of the activity of Compound I on the oxazolone-induced inflammatory bowel disease model (ulcerative Colitis and Crohn's disease model) was carried out by means of a standard procedure (Heller F., Fuss I. J., Nieuwenhuis E. E., Blumberg R. S., Strober W. Oxazolone colitis, a Th2 colitis model resembling ulcerative colitis, is mediated by IL-13-producing NK-T cells//Immunity. 2002. P. 629-638).
The study was carried out on female balb/c mice. A 3.5 F catheter was introduced into the large intestine to a depth of 3-4 cm. Then, 150 μl of 1% oxazolone solution in 50% ethanol was slowly introduced into the colon lumen, the catheter was slowly removed and the mouse was kept in a vertical position (upside down) for 60 seconds to avoid the introduced solution flowing-out. Experimental animals were returned to the cages and the animal was kept in the warm. Compound I was administered intragastrically, three times: 1 hour, 25 hours and 49 hours after the rectal administration of oxazolone. 72 hours later after the rectal administration of oxazolone, the macroscopic assessment of intestinal wall damage is carried out with the help of score scale: 0 points—no lesions, 1 point—hyperemia, no ulcers, 2 points—hyperemia and thickening of the intestinal wall, no ulcers, 3 points—one ulcer without thickening of the intestine wall, 4 points—2 or more of the site of ulceration or inflammation, 5 points—2 or more severe sites of ulcerations and inflammation, or one site of ulceration/inflammation affecting >1 cm in length of the intestine, 6-10 points—the lesion affects >2 cm in length of the intestine, the score increases by 1 point per each 1 cm that is damaged.
For all data, descriptive statistics is applied: the arithmetic mean (M) and the standard error of the mean (m) are counted up. The normality of distribution of the values obtained in the course of the experiment was checked with the aid of the Shapiro-Wilk test. […] Distinctions were determined at 5% at a level of confidence.

male balb/c mice = test: Motility of the gastrointestinal tract in vivo (activated carbon transit); conditions: intact 73.8 ± 3.7
Procedure: The effect of Compound I on the motility of the GIT was studied by a standard procedure (Li Y. Y., Li Y. N., Ni J. B., Chen C. J., Lv S., Chai S. Y., Wu R. H., Yüce B., Storr M. Involvement of cannabinoid-1 and cannabinoid-2 receptors in septic ileus//Neurogastroenterol Motil. 2010. V. 22. P. 350-388). The study was carried out on male balb/c mice, the individual weight of which deviates from the mean value within the sex of no more than ±20%. The animals were given the intragastric administration of a solution of activated carbon (50 mg/ml, in 10 ml/kg) and the rate (in minutes) of the movement of the activated carbon on the intestine of animals was evaluated. Compounds I was administered once intragastrically 1 hour prior to administration of activated carbon. As the comparative preparations, hyoscin butyl bromide (Buscopan) at a dose of 3 mg/kg, trimebutine (Trimedat) at a dose of 33 mg/kg, mebeverine (Duspatalin) at a dose of 30 mg/kg were used. The obtained data were checked using the Grubb's test for the presence of the largest or smallest abnormal observation (ejection) in the sample. Values determined “to be eliminated” in this test were not used for further assay. For all data, descriptive statistics was used: a mean value (M) and standard error of the mean value (m) were counted up. The normality of distribution of the values obtained in the course of the experiment was checked with the aid of the Kolmogorov-Smirnov test. In the case of normal distribution, Student's t-test (t-test) was used to evaluate the inter-group distinctions. In the case of the distribution that is other than the normal one for the comparison of several groups, the Kruskall-Wallis test (with Dann's post hoc test) was used. Distinctions were determined at 5% at a level of confidence.

## C[C@]12C=CC(=O)C=C1CC[C@@H]1[C@@H]2[C@@H](O)C[C@@]2(C)[C@H]1CC[C@]2(O)C(=O)CO [Prednisolone, reference compound]
Female balb/c mice
  The degree of colon wall damage: 1.40 ± 0.37 points

## CCN(CCCCOC(=O)c1ccc(OC)c(OC)c1)C(C)Cc1ccc(OC)cc1 (stereo not shown) [Mebeverine, mebeverine, reference compound]
Male balb/c mice; 30 mg/kg once intragastrically 1 hour prior to activated carbon
  The time of ejection of activated carbon: 114.5 ± 12.22 min

## CCC(COC(=O)c1cc(OC)c(OC)c(OC)c1)(c1ccccc1)N(C)C (stereo not shown) [Trimebutine, trimebutine, reference compound]
Male balb/c mice; 33 mg/kg once intragastrically 1 hour prior to activated carbon
  The time of ejection of activated carbon: 110.8 ± 6.52 min

## CCCC[N+]1(C)[C@@H]2C[C@@H](OC(=O)[C@H](CO)c3ccccc3)C[C@H]1[C@@H]1O[C@@H]12 (stereo partly shown) [Hyoscine butyl bromide, hyoscin butyl bromide, reference compound]
Male balb/c mice; 3 mg/kg once intragastrically 1 hour prior to activated carbon
  The time of ejection of activated carbon: 87.6 ± 4.75 min
